Experimental data published in ChEMBL document CHEMBL5108045, “Identification and Utilization of a Chemical Probe to Interrogate the Roles of PIKfyve in the Lifecycle of β-Coronaviruses” (J Med Chem, 2022).
Activity calls are given as the source filed them. The rule behind the calls is not given here.

Experiments:
HEK-293T = assay: (§1) Inhibition of His-6 tagged SARS-CoV-2 spike protein uptake in ACE2 overexpressing HEK293T cells at 1 uM incubated for 30 mins by DAPI staining based confocal microscopy analysis; assay type: functional; conditions: Homo sapiens
[1] = as §1; assay type: functional; conditions: Homo sapiens, HEK-293T, 0.5 h

| Compound | inhibition (HEK-293T) | inhibition at 1 µM [1] [%] |
| --- | --- | --- |
| CN(C)CC#Cc1ccc2[nH]c3c(c2c1)-c1nc(N)ncc1CCC3 | Active | – |
| Nc1ncc2c(n1)-c1c([nH]c3ccc(-c4ccc(F)cc4)cc13)CCC2 | Active | – |
| Cc1cccc(/C=N/Nc2cc(N3CCOCC3)nc(OCCc3ccccn3)n2)c1 | Active | – |
| CC(C)(O)C#Cc1ccc2[nH]c3c(c2c1)-c1nc(N)ncc1CCC3 | – | < 10 |
